# Read-outs that look alike come from different tables or passages of the source.
# Assays:
# A. baumannii 1652 [1] = assay: MIC assay, strain 1652; format: cell-based, Acinetobacter baumannii; conditions: Acinetobacter baumannii, strain 1652
# Protocol: (§1) MIC and MBC assays were performed in this study as documented by us previously.^17,23,24,25 The A. baumannii strains used are detailed in Table 7.
# A. baumannii 1651 [2] = assay: minimal bactericidal concentration (MBC) assay, strain 1651; format: cell-based; conditions: Acinetobacter baumannii, Table 8, read-out: MBC90 1651
# From the text: (§2) Lead quinazolines 4, 5, 26, 29, 27, and 30 were selected to be further evaluated for antimicrobial effects. The first assay utilized was a minimal bactericidal concentration (MBC) assay, to assess whether leads compounds were bacteriostatic or bactericidal. The six lead agents were screened to identify their MBC90 towards each of the six A. baumannii isolates used in the SAR studies (Table 8), however for simplicity only the representative data for isolate 1646 is detailed below (Table 6). […] Further to this, we were able to obtain complete eradication of bacterial growth for these two compounds at 1 μM for 24 and 5 μM for 25.
# as §1
# [3] = tested on: A. baumannii 1650 biofilm; assay: biofilm eradication determination assay, strain 1650; format: cell-based, Acinetobacter baumannii; conditions: 90% biofilm eradication, Table 8
# Protocol: (§3) These assays were performed as described by us previously,^26,24 as follows. Each of the A. baumannii strains were grown overnight in Mueller Hinton Broth (MHB). The next day these were used to seed fresh MHB to an OD600 of 0.5, with 150 μL then added to the wells of a 96 well plate and grown for 24 hours at 37° C. After 24 hours, the planktonic bacteria were carefully removed and fresh MHB was added with increasing concentrations of lead quinazolines. After incubation at 37° C. for 24 hours, planktonic cells were removed and biofilms were washed three times with phosphate buffered saline (PBS). Biofilms were then resuspended in PBS and plated for cell viability on tryptic soy agar. Biofilm recovery was assessed compared to no drug controls, and determined as percent eradication. This was used to determine MBEC90 values (Minimal Biofilm Eradication Concentration), where the viability of cells within the biofilm was reduced by 90%.
# A. baumannii 1646 [4] = assay: minimal bactericidal concentration (MBC) assay, strain 1646; format: cell-based, Acinetobacter baumannii
# From the text: as §2, §1
# A. baumannii 1649 [5] = assay: minimal bactericidal concentration (MBC) assay, strain 1649; format: cell-based; conditions: Acinetobacter baumannii, Table 8, read-out: MBC90 1649
# From the text: as §2, §1
# A. baumannii 1403 [6] = assay: MIC assay, strain 1403; format: cell-based, Acinetobacter baumannii; conditions: Acinetobacter baumannii, strain 1403
# Protocol: as §1
# A. baumannii 1650 [7] = assay: minimal bactericidal concentration (MBC) assay, strain 1650; format: cell-based; conditions: Acinetobacter baumannii, Table 8, read-out: MBC90 1650
# From the text: as §2, §1
# [8] = tested on: A. baumannii 1651 biofilm; assay: biofilm eradication determination assay, strain 1651; format: cell-based, Acinetobacter baumannii; conditions: 90% biofilm eradication, Table 8
# Protocol: as §3
# A. baumannii 1651 [9] = assay: MIC assay, strain 1651; format: cell-based, Acinetobacter baumannii; conditions: Acinetobacter baumannii, strain 1651
# Protocol: as §1
# A. baumannii 1403 [10] = assay: minimal bactericidal concentration (MBC) assay, strain 1403; format: cell-based; conditions: Acinetobacter baumannii, Table 8, read-out: MBC90 1403
# From the text: as §2, §1
# [11] = tested on: A. baumannii 1649 biofilm; assay: biofilm eradication determination assay, strain 1649; format: cell-based, Acinetobacter baumannii; conditions: 90% biofilm eradication, Table 8
# Protocol: as §3
# A. baumannii 1649 [12] = assay: MIC assay, strain 1649; format: cell-based, Acinetobacter baumannii; conditions: Acinetobacter baumannii, strain 1649
# Protocol: as §1
# [13] = tested on: A. baumannii 1403 biofilm; assay: biofilm eradication determination assay, strain 1403; format: cell-based, Acinetobacter baumannii; conditions: 90% biofilm eradication, Table 8
# Protocol: as §3
# [14] = tested on: A. baumannii 1652 biofilm; assay: biofilm eradication determination assay, strain 1652; format: cell-based, Acinetobacter baumannii; conditions: 90% biofilm eradication, Table 8
# Protocol: as §3
# A. baumannii 1652 [15] = assay: minimal bactericidal concentration (MBC) assay, strain 1652; format: cell-based; conditions: Acinetobacter baumannii, Table 8, read-out: MBC90 1652
# From the text: as §2, §1
# human HepG2 cells = format: cell-based; conditions: for LD50(HepG2): human, 48 h
# Protocol: Cytotoxicity assays were performed using human HepG2 cells (human liver epithelial with hepatocellular carcinoma), as described by us previously.^17,24 Cells were cultured in Dulbecco's modified eagle medium (DMEM), supplemented with 10% fetal bovine serum and 1% penicillin-streptomycin for 3 days at 37° C. and 5% CO2. Cells were then diluted to 1×10^5 ml^−1 using fresh DMEM and added to 96 well tissue culture plates at a volume of 100 μL. Plates were incubated for 24 hours at 37° C. and 5% CO2, allowing the cells to adhere to the plastic. […] Plates were then incubated for 48 hours at 37° C. and 5% CO2. After 48 hours the DMEM was removed and 100 μL of new media was added containing MTT (3-(4, 5-dimethylthiazol-2-yl)-2, 5-diphenyltetrazolium bromide), followed by incubation for four hours at 37° C. and 5% CO2. […] Lead compounds were solvated in 100% DMSO for these studies, which served as the negative control. LD50 values were determined for each compound by comparison to vehicle only controls.
# A. baumannii 1650 [16] = assay: MIC assay, strain 1650; format: cell-based, Acinetobacter baumannii; conditions: Acinetobacter baumannii, strain 1650
# Protocol: as §1
# A. baumannii = assay: MIC assay, A. baumannii isolates (strain not given); format: cell-based, Acinetobacter baumannii; conditions: Acinetobacter baumannii; most isolates besides the 1652 strain; read-out: MIC against most isolates
# Protocol: as §1
# [17] = tested on: A. baumannii 1646 biofilm; assay: biofilm eradication determination assay, strain 1646; format: cell-based, Acinetobacter baumannii; conditions: for MBEC90: Table 6, representative data for isolate 1646; for MBEC90 1646 / reduction in biofilm viability: strain 1646; for MBEC90 1646: 90% biofilm eradication, Table 8 and text; for reduction in biofilm viability: at 50 μM
# Protocol: as §3
# A. baumannii 1646 [18] = assay: MIC assay, strain 1646; format: cell-based, Acinetobacter baumannii; conditions: Acinetobacter baumannii
# Protocol: as §1
# [19] = Tables 1, 3, 4, 5 and footnotes, read-out: 1652 MIC
# [20] = lead quinazolines, Table 8, read-out: MIC 1652
# [21] = Acinetobacter baumannii, 1646, strain 1646, Table 8 and text, read-out: MBC90 1646
# [22] = Acinetobacter baumannii, Table 6, representative data for isolate 1646, read-out: MBC90
# [23] = Tables 1, 3, 4, 5 and footnotes, read-out: 1403 MIC
# [24] = lead quinazolines, Table 8, read-out: MIC 1403
# [25] = Tables 1, 3, 4, 5 and footnotes, read-out: 1651 MIC
# [26] = lead quinazolines, Table 8, read-out: MIC 1651
# [27] = Tables 1, 3, 4, 5 and footnotes, read-out: 1649 MIC
# [28] = lead quinazolines, Table 8, read-out: MIC 1649
# [29] = at 25 μM (highest concentration tested)
# [30] = Tables 1, 3, 4, 5 and footnotes, read-out: 1650 MIC
# [31] = lead quinazolines, Table 8, read-out: MIC 1650
# [32] = Table 6, representative data for isolate 1646, read-out: MIC
# [33] = strain 1646, Tables 1, 3, 4, 5 and footnotes, read-out: 1646 MIC
# [34] = strain 1646, lead quinazolines, Table 8, read-out: MIC 1646
MIC (A. baumannii 1652 [1]; [19]) [µM],MIC (A. baumannii 1652 [1]; [20]) [µM],MIC (A. baumannii 1403 [6]; [23]) [µM],MIC (A. baumannii 1403 [6]; [24]) [µM],MIC (A. baumannii 1651 [9]; [25]) [µM],MIC (A. baumannii 1651 [9]; [26]) [µM],MIC (A. baumannii 1649 [12]; [27]) [µM],MIC (A. baumannii 1649 [12]; [28]) [µM],Structure (SMILES),MBC (A. baumannii 1651 [2]) [µM],MBEC90 1650 [3] [µM],MBC (A. baumannii 1646 [4]; [21]) [µM],MBC (A. baumannii 1646 [4]; [22]) [µM],MBC (A. baumannii 1649 [5]) [µM],MBC (A. baumannii 1650 [7]) [µM],MBEC90 1651 [8] [µM],MBC (A. baumannii 1403 [10]) [µM],MBEC90 1649 [11] [µM],MBEC90 1403 [13] [µM],MBEC90 1652 [14] [µM],MBC (A. baumannii 1652 [15]) [µM],further results
10,20,2,15,2,10,2,10,"CCCCCc1ccc2nc(NCc3ccccc3)nc(NC)c2c1 [Compound 27, N^2-Benzyl-N^4-methyl-6-pentylquinazoline-2,4-diamine]",4.1,49,1.1,1.1,43,20,18,20,62,12,64,23,HepG2 cell viability (human HepG2 cells; [29]): 31%; LD50(HepG2) (human HepG2 cells): 12 µM; MIC (A. baumannii 1650 [16]; [30]): 2 µM; MIC (A. baumannii 1650 [16]; [31]): 10 µM; MIC (A. baumannii): 2 µM; MBEC90 [17]: 11.5 µM; MBEC90 1646 [17]: 12 µM; MIC (A. baumannii 1646 [18]; [32]): 1 µM; MIC (A. baumannii 1646 [18]; [33]): 2 µM; MIC (A. baumannii 1646 [18]; [34]): 1 µM
30,30,2,3,2,2,10,8,"CNc1nc(NCc2ccccc2)nc2ccc(C3=CCCCC3)cc12 [Compound 29, N^2-Benzyl-6-(cyclohex-1-en-1-yl)-N^4-methylquinazoline-2,4-diamine]",4,48,1.5,1.5,9.1,16,21,22,58,20,77,11,HepG2 cell viability (human HepG2 cells; at 12 μM): 42%; HepG2 cell viability (human HepG2 cells; [29]): 32%; LD50(HepG2) (human HepG2 cells): 23 µM; MIC (A. baumannii 1650 [16]; [30]): 10 µM; MIC (A. baumannii 1650 [16]; [31]): 10 µM; MIC (A. baumannii): 2 µM; MBEC90 [17]: 8.9 µM; reduction in biofilm viability [17]: 1.6 log; MBEC90 1646 [17]: 8.9 µM; MIC (A. baumannii 1646 [18]; [32]): 2 µM; MIC (A. baumannii 1646 [18]; [33]): 2 µM; MIC (A. baumannii 1646 [18]; [34]): 2 µM
10,20,2,20,2,20,2,15,"CNc1nc(NCc2ccccc2)nc2ccc(C3CCCCC3)cc12 [Compound 30, N^2-Benzyl-6-cyclohexyl-N^4-methylquinazoline-2,4-diamine]",28,46,1.1,1.1,33,22,33,32,68,21,>100,17,HepG2 cell viability (human HepG2 cells; [29]): 39%; LD50(HepG2) (human HepG2 cells): 11 µM; MIC (A. baumannii 1650 [16]; [30]): 2 µM; MIC (A. baumannii 1650 [16]; [31]): 20 µM; MIC (A. baumannii): 2 µM; MBEC90 [17]: 41.2 µM; reduction in biofilm viability [17]: 4.2 log; MBEC90 1646 [17]: 41 µM; MIC (A. baumannii 1646 [18]; [32]): 2 µM; MIC (A. baumannii 1646 [18]; [33]): 2 µM; MIC (A. baumannii 1646 [18]; [34]): 2 µM

# — patent US10323007B1, “N2N N4-disubstituted quinazoline-2,4-diamines and uses thereof” (University of South Florida, priority 2016, dated 2019)
